Literature values as cited in patent EP4407007A1, “ECO-FRIENDLY INK FORMULATION, PARTICULARLY FOR BALLPOINT PENS AND ASSOCIATED BALLPOINT PEN CARTRIDGE” (Reinol S.r.l., priority 2023, dated 2024).

Tests used:
[1] = system: Fish; conditions: hazard category
[2] = hazard category
[3] = hazard category; remark: listed apart in the source

| Compound | Aquatic toxicity Fish [1] | Skin irritation [2] | Acute toxicity Oral inhalation [3] |
| --- | --- | --- | --- |
| CC1(C)OCC(CO)O1 (racemic) [2,2-dimethyl-1,3-dioxolane-4-yl-methanol] | Unclassified | Unclassified | Unclassified |
| OCc1ccccc1 [benzyl alcohol] | Category 2 | Category 2 | Category 4 |
